Test system: Escherichia coli ATCC 25922
Assay: Broth microdilution antimicrobial susceptibility testing (MIC/MBC)
Type: cell-based
Details: one maximum and one minimum data point dropped; for MIC, E. coli ATCC 25922: broth microdilution (CLSI, adapted for cationic AMPs), Mueller‐Hinton Broth, 5 ± 3 × 10^5 CFU/mL, 20–24 h at 37°C, test range 128 down to 0.25 μg/mL, lowest effective concentration range in three independent experiments in duplicate; for MBC, E. coli ATCC 25922: concentration killing 99.9% of the inoculum, plated from MIC wells, 24 h at 37°C, range in three independent experiments in duplicate
Description: Bacteria from frozen stocks were streaked onto non‐selective Columbia blood agar with 5% sheep blood (Oxoid) and incubated for 18–24 h at 37°C. The following day, 2–4 colonies were streaked onto a new agar plate and incubated for 18–24 h at 37°C to ensure uniform colony health prior to the assay. A standardized bacterial inoculum was prepared by suspending isolated colonies in Mueller‐Hinton Broth (MHB; Sigma‐Aldrich, St. Louis, MO, USA). The suspension was adjusted to an optical density of 0.08–0.1 at 600 nm, equivalent to a 0.5 McFarland standard of approximately 1–2 × 10^8 CFU/mL (CFU: colony forming units). The inoculum was then diluted 1:250 to achieve a final concentration of 5 ± 3 × 10^5 CFU/mL. The target bacterial density was confirmed by examining the total viability counts from the final inoculum.
Candidate AMPs were purchased from and synthesized by GenScript (Piscataway, NJ, USA). These were received in lyophilized format and stored at −20°C, and were suspended in sterile ultrapure water prior to testing.

**Q.** Which results are given for FLPKIAGKAAKKLPKIFCKITKKC [DeNo1019]?
**A.** MIC, E. coli ATCC 25922: 16 µg/mL; MBC, E. coli ATCC 25922: 16 µg/mL

**Q.** How did the “MIC, E. coli ATCC 25922” value turn out when MLPSIAGAAAKGLPKLFCKITKKC [DeNo1038] was run?
**A.** 64 µg/mL

**Q.** And the “MBC, E. coli ATCC 25922” value?
**A.** 64 to 128 µg/mL

**Q.** What does the source list for RLPSIIPGIAGKLGGLLGGLLKGL [DeNo1027]?
**A.** MIC, E. coli ATCC 25922: 32 µg/mL; MBC, E. coli ATCC 25922: 32 to 64 µg/mL

**Q.** How did the “MIC, E. coli ATCC 25922” value turn out when FLPKIFKKIAKKL [DeNo1045] was run?
**A.** 64 µg/mL

**Q.** What about the “MBC, E. coli ATCC 25922” value of the same sequence?
**A.** 64 to 128 µg/mL

**Q.** Which results are given for “TLPDVAKNVAKNVAKTVLDTLKCKITGKC [DeNo1020]”?
**A.** MIC, E. coli ATCC 25922: 64 to 128 µg/mL; MBC, E. coli ATCC 25922: 64 to 128 µg/mL

**Q.** Which “MIC, E. coli ATCC 25922” value does the source give for KLPSIIKAAAKALPKLF [DeNo1034] here?
**A.** 16 to 32 µg/mL

**Q.** What about the “MBC, E. coli ATCC 25922” value of the same sequence?
**A.** 16 to 64 µg/mL

**Q.** Which “MIC, E. coli ATCC 25922” value does the source give for KIFGKILKKLLKKLLKKLLKKL [DeNo1013] here?
**A.** 16 µg/mL

**Q.** And the “MBC, E. coli ATCC 25922” value?
**A.** 16 to 32 µg/mL

— PMC11237553, “De novo synthetic antimicrobial peptide design with a recurrent neural network” (Protein Science : A Publication of the Protein Society, 2024)
